Target: T1, B1 bradykinin receptor (Homo sapiens, UniProt P46663)
T1 sequence (P46663 whole entry): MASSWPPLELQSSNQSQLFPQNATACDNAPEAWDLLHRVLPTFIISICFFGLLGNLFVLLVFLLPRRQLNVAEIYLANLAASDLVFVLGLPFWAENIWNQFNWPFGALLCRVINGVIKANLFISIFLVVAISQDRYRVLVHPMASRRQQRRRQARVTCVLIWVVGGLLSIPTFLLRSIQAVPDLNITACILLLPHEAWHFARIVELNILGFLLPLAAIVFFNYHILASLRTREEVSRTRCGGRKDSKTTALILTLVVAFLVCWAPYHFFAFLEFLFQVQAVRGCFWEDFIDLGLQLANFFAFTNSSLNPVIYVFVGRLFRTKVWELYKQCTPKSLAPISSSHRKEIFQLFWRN
Assay: Inhibition of Bradykinin receptor B1 expressed in HEK293 cells
Assay type: cell-based

Row | IC50 [nM] | Compound
1 | 6200 | CN(C)CCCN(CCCN(C)C)S(=O)(=O)c1ccc(NC(c2ccccc2)c2ccccc2)c([N+](=O)[O-])c1

Target: T1, B1 bradykinin receptor
Assay: Binding affinity for Bradykinin receptor B1 expressed in HEK293 cells
Assay type: cell-based

Row | Compound | Ki [nM]
2 | CC(C)N1CCN(C(=O)C2CCN(S(=O)(=O)c3ccc(NCC(c4ccccc4)c4ccccc4)c(C(=O)N4CCOCC4)c3)CC2)CC1 | 10
3 | CN(C)CCCN(CCCN(C)C)C(=O)CCNS(=O)(=O)c1ccc(NCC(c2ccccc2)c2ccccc2)c(C(=O)N2CCOCC2)c1 | 10
4 | CC(=O)c1cc(S(=O)(=O)NCCC(=O)N(CCCN(C)C)CCCN(C)C)ccc1NCC(c1ccccc1)c1ccccc1 | 130
5 | CN1CCN(C(=O)C2CCN(S(=O)(=O)c3ccc(NCC(c4ccccc4)c4ccccc4)c(C(=O)N4CCOCC4)c3)CC2)CC1 | 10
6 | CN(C)CCCN(CCCN(C)C)S(=O)(=O)c1ccc(NC(Cc2ccccc2)Cc2ccccc2)c([N+](=O)[O-])c1 | 250
7 | CN(C)CCCN(CCCN(C)C)C(=O)CCNS(=O)(=O)c1ccc(NCC(c2ccccc2)c2ccccc2)c(Cl)c1 | > 1000

Other lines, results leading:

Row | Ki [nM] | Compound
8 | 1 | CN(C)CCCN(CCCN(C)C)C(=O)C1CCN(S(=O)(=O)c2ccc(NCC(c3ccccc3)c3ccccc3)c(C(=O)N3CCOCC3)c2)CC1
9 | 230 | CN(C)CCCN(CCCN(C)C)S(=O)(=O)c1ccc(NCC(c2ccccc2)c2ccccc2)c([N+](=O)[O-])c1
10 | 3000 | CN(C)CCCN(CCCN(C)C)S(=O)(=O)c1ccc(NC(c2ccccc2)c2ccccc2)c([N+](=O)[O-])c1
11 | 140 | CN(C)CCCN(CCCN(C)C)C(=O)CCNS(=O)(=O)c1ccc(NCC(c2ccccc2)c2ccccc2)c([N+](=O)[O-])c1
12 | 10 | CN(C)CCCN(CCCN(C)C)C(=O)C1CCN(S(=O)(=O)c2ccc(NCC(c3ccccc3)c3ccccc3)c([N+](=O)[O-])c2)CC1

Target: T2, B2 bradykinin receptor (Homo sapiens, UniProt P30411)
T2 sequence (P30411 whole entry): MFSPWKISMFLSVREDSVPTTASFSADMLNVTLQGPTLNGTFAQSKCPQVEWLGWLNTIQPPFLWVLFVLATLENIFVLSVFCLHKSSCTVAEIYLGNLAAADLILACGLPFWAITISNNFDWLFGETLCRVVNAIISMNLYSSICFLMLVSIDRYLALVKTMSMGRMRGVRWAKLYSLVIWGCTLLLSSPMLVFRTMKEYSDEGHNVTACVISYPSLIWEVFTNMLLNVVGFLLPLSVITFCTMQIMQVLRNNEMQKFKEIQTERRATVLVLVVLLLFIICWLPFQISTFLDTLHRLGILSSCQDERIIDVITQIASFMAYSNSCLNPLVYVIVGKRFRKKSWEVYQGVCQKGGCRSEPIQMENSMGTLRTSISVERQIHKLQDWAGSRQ
Assay: Binding affinity for Bradykinin receptor B2 expressed in COS7 cells
Assay type: cell-based, COS-7

Row | Ki [nM] | Compound
13 | 1400 | CN(C)CCCN(CCCN(C)C)S(=O)(=O)c1ccc(NC(c2ccccc2)c2ccccc2)c([N+](=O)[O-])c1
